Laboratory results taken from patent EP1242012B1, “IMPROVED TRANSDERMAL CONTRACEPTIVE DELIVERY SYSTEM AND PROCESS” (priority 1999, dated 2001).

Assays:
[1] = human, in vivo, topical or ocular
Description: The total duration of study for each subject participating in this study is 5 months. It consists of one base-line period followed by three treatment periods and one recovery period. Each period is one menstrual cycle of the person subjects.
Subjects attending this 5 month-long study were randomly divided and sequentially admitted into three study groups. Group A, B and C subjects received one piece of 7.5 cm^2, 10.0 cm^2 and 12.5 cm^2 TCDS patch weekly, respectively, for three consecutive weeks I each of the three treatment periods. During the baseline and recovery periods, all the subjects received only the placebo patch of the corresponding size for three consecutive weeks. During the fourth week of each study period, no patch was worn by the subjects in any treatment groups.
According to the blood sampling schedule, a total of 57 blood samples (about 10 ml per sample) were taken from each subject during the 5-month study. During the three treatment cycles, 15 samples were taken through out the 21 days of patch wearing period. At the end of the third treatment cycle, 5 additional blood samples were taken during the 24 hours post patch removal which allows the elimination pharmacokinetics of drugs to be studied. […]
Serum level of levonorgestrel (LNG), ethinyl estradiol (EE) as well as luteinizing hormone (LH), progesterone (P) and estradiol (E2) were analyzed by radio-immunassay methods.

[2] = human, in vivo, topical or ocular; cited from earlier work

Row | SMILES | levels achieved by the TCDS formulation of the present invention [1] | levels achieved by the system described in the '956 patent [2]
1 | C#C[C@]1(O)CC[C@H]2[C@@H]3CCc4cc(O)ccc4[C@H]3CC[C@@]21C [ethinyl estradiol] | 35 to 75 pg/mL | –
2 | C#C[C@]1(O)CC[C@H]2[C@@H]3CCC4=CC(=O)CC[C@@H]4[C@H]3CC[C@@]21CC [levonorgestrel] | – | 400 pg/mL
